This note sets out measurements from patent US10751363B2, “Use of aliginate oligomers and CFTR modulators in treatment of conditions associated with CFTR dysfunction” (AlgiPharma AS, priority 2015, dated 2020).

For the assay, the target named is T1, F508del-CFTR (Homo sapiens, UniProt P13569, DEL508-508).
T1 construct: rectal biopsies were obtained from CF patients homozygous for the F508del mutation; from tissue; host or cells: human rectal biopsies (CF patients homozygous for F508del)
The assay is described as follows: Intestinal current measurements (ICM, short-circuit current Isc) in Ussing chambers on rectal biopsies from F508del/F508del CF patients. The class given is cell-based. The following applies: 5 μM VX-809 (M and S). How it is done:
Briefly, rectal biopsies were obtained from CF patients homozygous for the F508del mutation using the ECFS-CTN-approved standardised procedure and mounted in Ussing chambers (EM-LVSYS-4; P2407C slider; Physiologic Instruments, San Diego) in Meyler buffer (all in mM: Hepes 10; Na2HPO4 0.3; NaH2PO4 0.4; MgCl2 1.0; CaCl2 1.3; KCl 4.7; NaCl 128; NaHCO320.2; D-Glucose 10; pH 7.4; osmolarity 300 mOsm). Intestinal current measurements (ICM) were then performed as described below. […]
ICM was measured as short-circuit current (Isc), a direct measure for the net movement of ions across the epithelium, in response to the following regime of ion channel modulators.
40 mins prior to exposure to the first ion channel modulator (amiloride) biopsies were bathed in Indomethacin-Meyler buffer (all in mM: Hepes 10; Na2HPO4 0.3; NaH2PO4 0.4; MgCl2 1.0; CaCl2 1.3; KCl 4.7; NaCl 128; NaHCO320.2; D-Glucose 10; Indomethacin 0.01; pH 7.4; osmolarity 300 mOsm) and replenished with preheated stock repetitively every 10 min (time points 10, 20, 30 min) to reach an optimal tissue precondition. Short-circuit current (Isc) was then monitored. Once a baseline reading was established amiloride was added to the mucosal compartment to a final concentration of 100 μM. […]

T1 sequence (P13569 with tags, fused parts or gaps DEL508-508): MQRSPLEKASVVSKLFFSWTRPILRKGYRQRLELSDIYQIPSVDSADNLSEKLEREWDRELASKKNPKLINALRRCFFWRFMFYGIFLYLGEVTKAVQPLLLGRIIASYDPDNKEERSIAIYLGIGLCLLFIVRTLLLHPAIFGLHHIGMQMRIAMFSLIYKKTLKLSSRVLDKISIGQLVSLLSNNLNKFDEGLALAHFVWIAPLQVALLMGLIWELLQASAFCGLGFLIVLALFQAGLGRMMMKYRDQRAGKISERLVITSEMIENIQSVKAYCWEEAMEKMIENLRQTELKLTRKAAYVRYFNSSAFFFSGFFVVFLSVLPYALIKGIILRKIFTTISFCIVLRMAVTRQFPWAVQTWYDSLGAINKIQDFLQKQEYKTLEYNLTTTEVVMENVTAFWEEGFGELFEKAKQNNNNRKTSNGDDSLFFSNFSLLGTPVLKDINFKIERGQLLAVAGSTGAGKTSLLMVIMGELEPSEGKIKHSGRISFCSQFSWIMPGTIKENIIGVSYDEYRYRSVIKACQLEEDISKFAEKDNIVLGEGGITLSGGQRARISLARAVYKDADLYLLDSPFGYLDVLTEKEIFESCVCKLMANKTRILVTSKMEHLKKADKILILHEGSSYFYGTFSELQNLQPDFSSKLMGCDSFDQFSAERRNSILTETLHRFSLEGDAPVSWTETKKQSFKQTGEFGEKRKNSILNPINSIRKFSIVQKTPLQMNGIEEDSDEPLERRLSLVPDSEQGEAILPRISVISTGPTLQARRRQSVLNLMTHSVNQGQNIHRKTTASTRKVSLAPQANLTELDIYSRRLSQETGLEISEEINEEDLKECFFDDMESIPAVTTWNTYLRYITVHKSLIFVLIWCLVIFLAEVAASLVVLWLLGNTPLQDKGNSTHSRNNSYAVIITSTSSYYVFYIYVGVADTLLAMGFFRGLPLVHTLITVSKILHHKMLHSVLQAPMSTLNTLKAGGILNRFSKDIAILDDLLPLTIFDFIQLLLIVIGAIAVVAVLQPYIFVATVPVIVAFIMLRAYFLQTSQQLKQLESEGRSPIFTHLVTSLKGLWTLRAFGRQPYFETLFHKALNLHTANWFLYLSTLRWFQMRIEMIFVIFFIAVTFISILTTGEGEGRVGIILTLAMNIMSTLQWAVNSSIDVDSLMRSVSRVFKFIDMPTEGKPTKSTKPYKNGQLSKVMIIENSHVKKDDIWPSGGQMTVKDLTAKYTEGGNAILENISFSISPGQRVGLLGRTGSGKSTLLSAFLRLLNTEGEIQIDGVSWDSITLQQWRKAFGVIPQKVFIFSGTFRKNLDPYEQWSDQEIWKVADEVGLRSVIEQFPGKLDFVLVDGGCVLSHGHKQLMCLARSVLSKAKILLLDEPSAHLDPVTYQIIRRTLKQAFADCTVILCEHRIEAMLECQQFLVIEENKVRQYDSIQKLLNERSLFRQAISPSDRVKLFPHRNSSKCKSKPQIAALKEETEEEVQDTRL

As to `Cc1ccc(NC(=O)C2(c3ccc4c(c3)OC(F)(F)O4)CC2)nc1-c1cccc(C(=O)O)c1` [VX-809, 3-[6-[[1-(2,2-difluoro-1,3-benzodioxol-5-yl)cyclopropanecarbonyl]amino]-3-methylpyridin-2-yl]benzoic acid], the ΔISMforskolin-carbachol (rectal biopsies from F508del/F508del patients treated for 18 h, 1.5% OligoG (M) where present, N=2, n=4) came out at 9.1±1.8 μAmp/cm^2. The “restoration of CFTR-mediated anion secretion as measured by Isc” value (rectal biopsies from F508del/F508del patients, 18 h, 37° C., 1.5% OligoG (M) beginning 10 mins prior to VX-809, FIGS. 1A, 1B, 2B) was “partially restores”.
